Assay results as given in patent US20100015141A1, “4-PHENOXY-6-ARYL-1H-PYRAZOLO[3,4-D]PYRIMIDINE AND N-ARYL-6-ARYL-1H-PYRAZOLO[3,4-D]PYRIMIDIN-4-AMINE COMPOUNDS, THEIR USE AS MTOR KINASE AND PI3 KINASE INHIBITORS, AND THEIR SYNTHESES” (Wyeth, priority 2008, published 2010).

Tests used:
Type in all cases: biochemical
[1] = biological target: PI3K-α (Homo sapiens, UniProt P42336); test: PI3K-alpha fluorescence polarization assay; conditions: 20 μM PIP2, 25 μM ATP
Procedure: (§1) The reaction buffer was 20 mM HEPES pH7.5, 2 mM MgCl2, 0.05% CHAPS, and 0.01% βME (added fresh). The substrate solution was 40 μM PIP2 (diC8, Echelon, Salt Lake City Utah cat #P-4508, 1 mM in water) and 50 μM ATP in the reaction buffer. Nunc 384-well black polypropylene fluorescent plates were used for PI3K assays. The assay is run by putting 9.5 μl of freshly diluted enzyme in the reaction buffer per well, adding 0.5 μl of diluted drug or DMSO, and mixing. Then 10 μl of the substrate solution is added to each well to start the reaction. A final concentration of 20 μM PIP2 and 25 μM ATP in the reaction was used. Reactions were allowed to proceed for 30-60 minutes at room temperature. After 30-60 minutes, 20 μl of a solution of 10 nM TAMRA detector (Red detector probe-Echelon) and 2.5 uM of GST-murineGRP (1.5 mg/ml in 17% glycerol) was added per well to stop the reaction. The resulting solution was mixed well and allowed to stand for 90-110 minutes before reading plate. Assay Plates were read on Perkin-Elmer Envision plate readers with appropriate filters for Tamra [BODIPY-TMRI(1,3,4,5)P4]. Data obtained were used to calculate enzymatic activity and enzyme inhibition by inhibitor compounds. It is important to keep Red probe solutions dark. This procedure is adapted from Echelon Biosciences Inc procedure for their PI3-Kinase fluorescence polarization activity Assay kit Product number K-1100.

[2] = biological target: PI3K-γ (Homo sapiens, UniProt P48736); test: PI3K-gamma fluorescence polarization assay; conditions: 20 μM PIP2, 25 μM ATP
Procedure: as §1

[3] = biological target: mTOR (Homo sapiens, UniProt P42345); test: mTOR enzyme assay (DELFIA, His6-S6K phosphorylation); parameters: FLAG; conditions: 100 μM ATP, 1.25 μM His6-S6K

Chain of PI3K-γ (P48736 whole entry, species assumed): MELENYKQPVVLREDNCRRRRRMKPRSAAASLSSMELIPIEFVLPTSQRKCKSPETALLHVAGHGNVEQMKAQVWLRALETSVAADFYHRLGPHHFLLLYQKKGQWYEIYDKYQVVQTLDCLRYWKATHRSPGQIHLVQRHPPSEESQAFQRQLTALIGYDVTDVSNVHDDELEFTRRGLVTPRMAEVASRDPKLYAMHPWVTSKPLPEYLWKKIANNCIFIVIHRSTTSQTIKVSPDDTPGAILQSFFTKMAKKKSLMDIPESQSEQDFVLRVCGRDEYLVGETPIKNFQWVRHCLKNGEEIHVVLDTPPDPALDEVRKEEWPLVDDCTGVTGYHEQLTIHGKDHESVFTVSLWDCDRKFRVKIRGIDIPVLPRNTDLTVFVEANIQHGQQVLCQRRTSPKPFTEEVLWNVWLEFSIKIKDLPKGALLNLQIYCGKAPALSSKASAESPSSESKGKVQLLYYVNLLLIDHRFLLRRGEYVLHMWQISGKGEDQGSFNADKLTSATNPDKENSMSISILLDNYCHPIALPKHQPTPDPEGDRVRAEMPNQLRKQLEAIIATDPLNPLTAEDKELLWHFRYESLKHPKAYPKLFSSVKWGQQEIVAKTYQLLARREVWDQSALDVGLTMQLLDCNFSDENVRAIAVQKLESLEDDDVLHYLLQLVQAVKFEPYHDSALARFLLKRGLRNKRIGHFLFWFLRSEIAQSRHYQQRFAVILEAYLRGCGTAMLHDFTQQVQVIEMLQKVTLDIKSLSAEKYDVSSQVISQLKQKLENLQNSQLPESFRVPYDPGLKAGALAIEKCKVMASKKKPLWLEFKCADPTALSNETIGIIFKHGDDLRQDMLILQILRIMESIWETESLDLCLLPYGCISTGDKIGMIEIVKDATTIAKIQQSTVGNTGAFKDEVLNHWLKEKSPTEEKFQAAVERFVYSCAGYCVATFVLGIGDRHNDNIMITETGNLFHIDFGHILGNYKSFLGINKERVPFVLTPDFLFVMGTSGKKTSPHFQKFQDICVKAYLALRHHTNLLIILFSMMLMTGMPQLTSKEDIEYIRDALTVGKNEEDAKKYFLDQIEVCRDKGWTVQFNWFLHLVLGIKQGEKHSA
Chain of PI3K-α (P42336 whole entry, species assumed): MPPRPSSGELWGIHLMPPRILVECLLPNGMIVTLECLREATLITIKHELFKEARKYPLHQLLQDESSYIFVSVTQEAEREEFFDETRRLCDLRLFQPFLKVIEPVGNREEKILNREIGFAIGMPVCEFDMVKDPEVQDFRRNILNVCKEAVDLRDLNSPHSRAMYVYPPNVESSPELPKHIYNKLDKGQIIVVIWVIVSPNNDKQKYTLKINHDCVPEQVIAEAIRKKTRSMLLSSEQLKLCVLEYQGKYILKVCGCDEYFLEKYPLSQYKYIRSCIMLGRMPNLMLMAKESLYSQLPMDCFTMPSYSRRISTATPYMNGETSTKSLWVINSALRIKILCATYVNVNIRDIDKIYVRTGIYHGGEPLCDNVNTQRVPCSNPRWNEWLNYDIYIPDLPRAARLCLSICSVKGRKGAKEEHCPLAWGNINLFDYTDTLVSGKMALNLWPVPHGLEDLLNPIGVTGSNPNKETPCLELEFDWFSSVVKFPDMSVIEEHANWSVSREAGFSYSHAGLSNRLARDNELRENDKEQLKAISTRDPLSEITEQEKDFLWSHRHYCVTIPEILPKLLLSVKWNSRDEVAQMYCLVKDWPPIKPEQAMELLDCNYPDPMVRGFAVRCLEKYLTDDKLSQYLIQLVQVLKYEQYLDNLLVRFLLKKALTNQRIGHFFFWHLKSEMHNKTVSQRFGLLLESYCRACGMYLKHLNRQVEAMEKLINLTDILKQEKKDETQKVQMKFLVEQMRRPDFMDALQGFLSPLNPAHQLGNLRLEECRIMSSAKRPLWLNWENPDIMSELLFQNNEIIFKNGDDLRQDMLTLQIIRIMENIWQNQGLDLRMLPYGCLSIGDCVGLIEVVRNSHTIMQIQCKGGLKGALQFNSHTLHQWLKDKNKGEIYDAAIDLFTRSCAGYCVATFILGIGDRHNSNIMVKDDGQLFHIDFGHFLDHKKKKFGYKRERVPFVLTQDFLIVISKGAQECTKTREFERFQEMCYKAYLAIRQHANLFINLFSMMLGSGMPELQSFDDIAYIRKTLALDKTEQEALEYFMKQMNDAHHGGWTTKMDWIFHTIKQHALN
Chain of PI3K-α (P27986 whole entry partner, species assumed): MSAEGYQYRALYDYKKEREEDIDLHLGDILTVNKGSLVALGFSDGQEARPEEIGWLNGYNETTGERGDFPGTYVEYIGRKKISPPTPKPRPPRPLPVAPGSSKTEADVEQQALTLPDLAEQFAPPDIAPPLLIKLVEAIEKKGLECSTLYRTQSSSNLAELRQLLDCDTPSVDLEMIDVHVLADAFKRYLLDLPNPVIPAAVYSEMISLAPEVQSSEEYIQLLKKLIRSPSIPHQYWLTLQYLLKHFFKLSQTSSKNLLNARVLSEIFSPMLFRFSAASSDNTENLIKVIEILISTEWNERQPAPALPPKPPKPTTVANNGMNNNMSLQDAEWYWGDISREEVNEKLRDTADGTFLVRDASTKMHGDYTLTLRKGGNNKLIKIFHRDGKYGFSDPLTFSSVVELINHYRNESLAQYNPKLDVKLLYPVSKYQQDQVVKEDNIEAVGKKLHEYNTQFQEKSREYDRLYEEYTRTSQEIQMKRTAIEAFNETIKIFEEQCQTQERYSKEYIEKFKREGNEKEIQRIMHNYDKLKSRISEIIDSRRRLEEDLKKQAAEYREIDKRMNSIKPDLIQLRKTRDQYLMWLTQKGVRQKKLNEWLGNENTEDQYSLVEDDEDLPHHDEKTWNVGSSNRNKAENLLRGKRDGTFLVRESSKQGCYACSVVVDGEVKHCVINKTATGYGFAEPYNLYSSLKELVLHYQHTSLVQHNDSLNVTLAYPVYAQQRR

IC50 [1] [nM] | IC50 [2] [nM] | IC50 [3] [nM] | SMILES
558 | 570 | 330 | Cn1ncc2c(Oc3ccc4[nH]ccc4c3)nc(-c3ccccc3)nc21 [Example 76, 4-(1H-indol-5-yloxy)-1-methyl-6-phenyl-1H-pyrazolo[3,4-d]pyrimidine]
493 | 2900 | 1700 | CNC(=O)Nc1ccc(-c2nc(Nc3ccc(C(N)=O)cc3)c3cnn(C)c3n2)cc1 [Example 77, 4-(1-methyl-6-(4-(3-methylureido)phenyl)-1H-pyrazolo[3,4-d]pyrimidin-4-ylamino)benzamide]
277 | 3600 | 775 | CNC(=O)Nc1cccc(-c2nc(Nc3ccc(C(N)=O)cc3)c3cnn(C)c3n2)c1 [Example 78, 4-(1-methyl-6-(3-(3-methylureido)phenyl)-1H-pyrazolo[3,4-d]pyrimidin-4-ylamino)benzamide]
529 | 2010 | 3450 | Cn1ncc2c(Nc3ccc(C(N)=O)cc3)nc(Nc3cccc(NC(=O)Nc4cccnc4)c3)nc21 [Example 80, 4-{[1-Methyl-6-({3-[(pyridin-3-ylcarbamoyl)amino]phenyl}amino)-1H-pyrazolo[3,4-d]pyrimidin-4-yl]amino}benzamide]
0.4 | 6 | 17 | CN1CCN(C(=O)c2ccc(NC(=O)Nc3ccc(Nc4nc(Nc5ccc(C(N)=O)cc5)c5cnn(C)c5n4)cc3)cc2)CC1 [Example 81, 4-{[1-Methyl-6-({4-[({4-[(4-methylpiperazin-1-yl)carbonyl]phenyl}carbamoyl)amino]phenyl}amino)-1H-pyrazolo[3,4-d]pyrimidin-4-yl]amino}benzamide]
0.2 | 5 | 7 | CN(C)C1CCN(C(=O)c2ccc(NC(=O)Nc3ccc(Nc4nc(Nc5ccc(C(N)=O)cc5)c5cnn(C)c5n4)cc3)cc2)CC1 [Example 82, 4-({6-[(4-{[(4-{[4-(Dimethylamino)piperidin-1-yl]carbonyl}phenyl)carbamoyl]amino}phenyl)amino]-1-methyl-1H-pyrazolo[3,4-d]pyrimidin-4-yl}amino)benzamide]
0.3 | 7 | 5 | CN(C)C1CCN(C(=O)c2ccc(NC(=O)Nc3ccc(Nc4nc(Nc5ccc(C(N)=O)cc5)c5cnn(C)c5n4)cc3)cc2)C1 (stereo not drawn) [Example 83, 4-({6-[(4-{[(4-{[3-(Dimethylamino)pyrrolidin-1-yl]carbonyl}phenyl)carbamoyl]amino}phenyl)amino]-1-methyl-1H-pyrazolo[3,4-d]pyrimidin-4-yl}amino)benzamide]
0.7 | 5 | 7 | Cn1ncc2c(Nc3ccc(C(N)=O)cc3)nc(Nc3ccc(NC(=O)Nc4ccc(C(=O)N5CCOCC5)cc4)cc3)nc21 [Example 84, 4-[(1-Methyl-6-{[4-({[4-(morpholin-4-ylcarbonyl)phenyl]carbamoyl}amino)phenyl]amino}-1H-pyrazolo[3,4-d]pyrimidin-4-yl)amino]benzamide]
0.4 | 11 | 9 | CN(CCO)C(=O)c1ccc(NC(=O)Nc2ccc(Nc3nc(Nc4ccc(C(N)=O)cc4)c4cnn(C)c4n3)cc2)cc1 [Example 85, 4-({[4-({4-[(4-Carbamoylphenyl)amino]-1-methyl-1H-pyrazolo[3,4-d]pyrimidin-6-yl}amino)phenyl]carbamoyl}amino)-N-(2-hydroxyethyl)-N-methylbenzamide]
10 | 143 | 2200 | CN(C)CCNC(=O)Nc1ccc(Nc2nc(Nc3ccc(C(N)=O)cc3)c3cnn(C)c3n2)cc1 [Example 86, 4-[(6-{[4-({[2-(Dimethylamino)ethyl]carbamoyl}amino)phenyl]amino}-1-methyl-1H-pyrazolo[3,4-d]pyrimidin-4-yl)amino]benzamide]
